One may read the melting point as the temperature of the solid-liquid transition.

Each structure is given as a SMILES string.

In patent US7414064B2, “4-(3,3-dihalo-allyloxy) phenoxy alkyl derivatives” (Syngenta Crop Protection, Inc., priority 2002, dated 2008) one finds melting point and inhibition data, which are given here for 12 molecules.

System in the first series: not given
Experiment: not given
Details: not given
Molecule `O=C(Nc1ccc(OCCCOc2c(Cl)cc(OCC=C(Cl)Cl)cc2Cl)cc1)c1ccccc1Cl` [Compound 1.19] showed a melting point of 107 to 111 °C.

Regarding `Cc1ccccc1C(=O)Nc1ccc(OCCCOc2c(Cl)cc(OCC=C(Cl)Cl)cc2Cl)cc1` [Compound 1.20], the melting point was in the range of 89 to 92 °C. Same read-out and setting: in the case of `O=C(Nc1ccc(OCCCOc2c(Cl)cc(OCC=C(Cl)Cl)cc2Cl)cc1)c1ccccc1Br` [Compound 1.21] it was 112 to 114 °C; in that of `O=C(Nc1ccc(OCCCOc2c(Cl)cc(OCC=C(Cl)Cl)cc2Cl)cc1)c1c(F)cccc1F` [Compound 1.22], 95 to 97 °C; in that of `O=C(Nc1ccc(OCCCOc2c(Cl)cc(OCC=C(Cl)Cl)cc2Cl)cc1)c1ccc(F)cc1F` [Compound 1.23], 89 to 91 °C. For the molecule `O=C(Nc1ccc(OCCCOc2c(Cl)cc(OCC=C(Cl)Cl)cc2Cl)cc1)c1ccccc1C(F)(F)F` [Compound 1.24], the melting point lay in the range of 118 to 121 °C. `O=C(Nc1ccc(OCCCOc2c(Cl)cc(OCC=C(Cl)Cl)cc2Cl)cc1)c1ccco1` [Compound 1.25] yielded a melting point of 108 to 113 °C. The same measure, in the same setting: in the case of `O=C(Nc1ccc(OCCCOc2c(Cl)cc(OCC=C(Cl)Cl)cc2Cl)cc1)c1cccs1` [Compound 1.26] it was 83 to 90 °C.

The test system of the next series is Heliothis virescens. The series is described as follows: Action against Heliothis virescens caterpillars (sprayed soybean plants). It counts as in vivo. Conditions: 144 h, 400 ppm spray mixture, caterpillars in the first stage, evaluation 6 days later, read-out: percentage reduction in population and percentage reduction in feeding damage (% activity). The protocol: Young soybean plants are sprayed with an aqueous emulsion spray mixture comprising 400 ppm of test compound. After the spray-coating has dried, the soybean plants are populated with 10 caterpillars of Heliothis virescens in the first stage and placed in a plastics container. Evaluation is made 6 days later. The percentage reduction in population and the percentage reduction in feeding damage (% activity) are determined by comparing the number of dead caterpillars and the feeding damage on the treated plants with that on the untreated plants.
As for `COC(=O)Nc1ccc(OCCCOc2c(Cl)cc(OCC=C(Cl)Cl)cc2Cl)cc1` [Compound 1.3], the inhibition at 400 ppm is above 80%. The same measure, in the same setting: in the case of `CCOC(=O)Nc1ccc(OCCCOc2c(Cl)cc(OCC=C(Cl)Cl)cc2Cl)cc1` [Compound 1.4] it was above 80%.

Consider `CC(C)(C)OC(=O)Nc1ccc(OCCCOc2c(Cl)cc(OCC=C(Cl)Cl)cc2Cl)cc1` [Compound 1.6, (4-{3-[2,6-Dichloro-4-(3,3-dichloroallyloxy)-phenoxy]-propoxy}-phenyl)-carbamic acid tert-butyl ester], for which the inhibition at 400 ppm was above 80%. Regarding `C#CCOC(=O)Nc1ccc(OCCCOc2c(Cl)cc(OCC=C(Cl)Cl)cc2Cl)cc1` [Compound 1.10], the inhibition at 400 ppm is above 80%.
